Assay results taken from ChEMBL document CHEMBL5725292, “Substituted benzamides and methods of use thereof” (2017).

Experiment: Radioligand Binding Assay: Binding of this radioligand was preformed in 5 mL borosilicate glass test tubes at room temperature. Binding was initiated by adding membranes to increasing concentrations of [3H]compound in 100 mMNaCl, 20 mMTrisHCl, pH 7.4 buffer containing 0.01% w/v bovine serum albumin (BSA) for 18 h. Non-specific binding was determined in the presence of 1 uM unlabelled compound. …
Parameters: species or system Homo sapiens
Description: Radioligand Binding Assay: Binding of this radioligand was preformed in 5 mL borosilicate glass test tubes at room temperature. […] Non-specific binding was determined in the presence of 1 uM unlabelled compound. […] [3H]compound bound to filters was quantified by liquid scintillation counting.

| IC50 | SMILES |
| --- | --- |
| 14 nM | O=C(NS(O)(O)C1CC1)c1cc(C2CC2)c(CN2CCC(Oc3ccc(F)cc3Cl)CC2)cc1F |
| 6 nM | COC[C@H](c1cc(Cl)cc(Cl)c1)N1CCC[C@@H](Oc2cc(F)c(C(=O)NS(C)(=O)=O)cc2C2CC2)C1 |
